From ChEMBL document CHEMBL5506042, “Discovery of the Clinical Candidate IDOR-1117-2520: A Potent and Selective Antagonist of CCR6 for Autoimmune Diseases” (J Med Chem, 2024)
pIC50: −log10 of the molar value. Active and inactive are the calls of the source. No cut-off for these calls is given here.

Columns and labels:
[1] = molecular target: T1, C-C chemokine receptor type 6 (Mus musculus, UniProt O54689); assay: Antagonist activity at CCR6 in C57BL/6J mouse whole blood assessed as inhibition of CCL20-stimulated receptor internalization in lymphocytes incubated for 40 mins followed by CCL20 addition and measured after 40 mins by flow cytometry
T1 sequence (O54689 whole entry): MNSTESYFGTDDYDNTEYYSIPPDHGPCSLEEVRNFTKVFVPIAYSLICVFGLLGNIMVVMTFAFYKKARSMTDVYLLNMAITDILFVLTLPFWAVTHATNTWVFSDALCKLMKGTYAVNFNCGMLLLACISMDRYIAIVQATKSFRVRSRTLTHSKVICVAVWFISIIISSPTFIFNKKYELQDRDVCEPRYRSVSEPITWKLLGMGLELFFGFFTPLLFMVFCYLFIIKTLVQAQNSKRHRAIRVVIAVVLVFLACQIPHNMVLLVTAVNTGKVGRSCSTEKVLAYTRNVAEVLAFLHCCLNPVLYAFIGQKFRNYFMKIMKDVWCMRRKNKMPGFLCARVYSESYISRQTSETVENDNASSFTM

[2] = Fraction unbound in mouse plasma at 1 uM by rapid equilibrium dialysis based LC-MS/MS analysis; assay type: ADME, cell-free
[3] = Cmax in Wistar rat at 10 mg/kg, po; assay type: ADME, organism-based; details: in vivo
[4] = Tmax in C57BL/6 mouse at 15 mg/kg, po; assay type: ADME, organism-based; details: in vivo
[5] = Intrinsic clearance in human liver microsomes at 1 uM measured for 15 mins in presence of NADPH regenerating system measured per mg protein by LC-MS/MS analysis; assay type: ADME, Microsome; details: read-out: CLH
[6] = Intrinsic clearance in rat liver microsomes at 3 uM measured for 15 mins in presence of NADPH regenerating system by LC-MS/MS analysis; assay type: ADME, Microsome; details: read-out: CLH
[7] = Cmax in C57BL/6 mouse at 15 mg/kg, po; assay type: ADME, organism-based; details: in vivo
[8] = AUC in Wistar rat at 10 mg/kg, po; assay type: ADME, organism-based; details: in vivo
[9] = Chemical stability of the compound at 0.1 mg/ml at pH 9 irradiated with xenon lamp at 250W/m2 incubated for 24 hrs by stress test; assay type: physicochemical; details: buffer, read-out: Stability
[10] = test system: HepaRG; assay: Cytotoxicity against human HepaRG cells assessed as leakage of intracellular LDH at 30 uM incubated for 24 hrs by spectrophotometry
[11] = Intrinsic clearance in rat liver microsomes at 1 uM measured for 15 mins in presence of NADPH regenerating system by LC-MS/MS analysis; assay type: ADME, Microsome; details: read-out: CLH
[12] = Chemical stability of the compound at 0.1 mg/ml at pH 10 irradiated with xenon lamp at 250W/m2 incubated for 24 hrs by stress test; assay type: physicochemical; details: buffer, read-out: Stability
[13] = Cmax in Wistar rat at 50 mg/kg, po; assay type: ADME, organism-based; details: in vivo
[14] = Chemical stability of the compound at 0.1 mg/ml at pH 4 irradiated with xenon lamp at 250W/m2 incubated for 24 hrs by stress test; assay type: physicochemical; details: buffer, read-out: Stability
[15] = Cmax in C57BL/6 mouse at 50 mg/kg, po; assay type: ADME, organism-based; details: in vivo
[16] = AUC in C57BL/6 mouse at 15 mg/kg, po; assay type: ADME, organism-based; details: in vivo
[17] = Intrinsic clearance in rat liver microsomes at 0.1 uM measured for 15 mins in presence of NADPH regenerating system by LC-MS/MS analysis; assay type: ADME, Microsome; details: read-out: CLH
[18] = test system: Mus musculus; assay: Inhibition of chemotaxis of CCR6-positive B cells in bronchoalveolar lavage fluid in ovalbumin-induced inflammation BALB/c mouse model at 15 mg/kg/day, po treated with OVA from day 1 to day 18 and with compound from day 8 to 18 and measured at 24 hrs post last dose of OVA challenge by flow cytometry; assay type: functional, organism-based; details: time 11.0 day
[19] = Tmax in Wistar rat at 50 mg/kg, po; assay type: ADME, organism-based; details: in vivo
[20] = fCmax in po dosed C57BL/6 mouse; assay type: ADME, organism-based; details: in vivo
[21] = AUC in C57BL/6 mouse at 50 mg/kg, po; assay type: ADME, organism-based; details: in vivo
[22] = Volume of distribution at steady state in Wistar rat at 1 mg/kg, iv; assay type: ADME, organism-based; details: in vivo, read-out: Vdss
[23] = Clearance in Wistar rat at 1 mg/kg, iv; assay type: ADME, organism-based; details: in vivo
[24] = Tmax in Wistar rat at 10 mg/kg, po; assay type: ADME, organism-based; details: in vivo
[25] = AUC in Wistar rat at 50 mg/kg, po; assay type: ADME, organism-based; details: in vivo
[26] = Intrinsic clearance in mouse liver microsomes at 1 uM measured for 15 mins in presence of NADPH regenerating system by LC-MS/MS analysis; assay type: ADME, Microsome; details: read-out: CLH
[27] = Lipophilicity, LogD of the compound in 1-Octanol/PBS at pH 7.4 by miniaturized shake flask method
[28] = Chemical stability of the compound at 0.1 mg/ml at pH 7 irradiated with xenon lamp at 250W/m2 incubated for 24 hrs by stress test; assay type: physicochemical; details: buffer, read-out: Stability
[29] = Oral bioavailability in Wistar rat at 50 mg/kg; assay type: ADME, organism-based; details: in vivo
[30] = Cytotoxicity against human HepG2 cells assessed as reduction in cell viability incubated for 72 hrs by CellTiter-Glo assay
[31] = Chemical stability of the compound at 0.1 mg/ml at pH 2 irradiated with xenon lamp at 250W/m2 incubated for 24 hrs by stress test; assay type: physicochemical; details: buffer, read-out: Stability
[32] = Oral bioavailability in Wistar rat at 10 mg/kg; assay type: ADME, organism-based; details: in vivo
[33] = Half life in Wistar rat at 1 mg/kg, iv; assay type: ADME, organism-based; details: in vivo
[34] = Tmax in C57BL/6 mouse at 50 mg/kg, po; assay type: ADME, organism-based; details: in vivo
[35] = test system: Mus musculus; assay: Inhibition of chemotaxis of CCR6-positive B cells in bronchoalveolar lavage fluid in ovalbumin-induced inflammation BALB/c mouse model at 15 mg/kg/day, po treated with OVA and compound from day 1 to day 18 and measured at 24 hrs post last dose of OVA challenge by flow cytometry; assay type: functional, organism-based; details: time 18.0 day
[36] = Fraction unbound in rat plasma at 1 uM by rapid equilibrium dialysis based LC-MS/MS analysis; assay type: ADME, cell-free

pIC50 [1]: 8.89 | fraction unbound at 1 µM [2]: 0.05 | Cmax [3]: 110 ng/mL | Tmax [4]: 30 min | microsomal CLint at […], 1 µM [5]: 146 µL/min/mg | microsomal CLint at […], 3 µM [6]: 450 µL/min/mg | Cmax [7]: 30 ng/mL | AUC [8]: 165 ng·h/mL | remaining at 24 h, 0.1 mg/ml [9]: 2% | microsomal CLint at […], 1 µM [11]: 750 µL/min/mg | remaining at 24 h, 0.1 mg/ml [12]: 2% | Cmax [13]: 308 ng/mL | remaining at 24 h, 0.1 mg/ml [14]: 4% | Cmax [15]: 1100 ng/mL | AUC [16]: 145 ng·h/mL | microsomal CLint at […], 0.1 µM [17]: > 1250 µL/min/mg | Tmax [19]: 30 min | fCmax [20]: 55 ng/mL | AUC [21]: 5030 ng·h/mL | Vd [22]: 11 L/kg | clearance [23]: 62 mL/min/kg | Tmax [24]: 30 min | AUC [25]: 1500 ng·h/mL | microsomal CLint at […], 1 µM [26]: 666 µL/min/mg | logD [27]: 2.2 | remaining at 24 h, 0.1 mg/ml [28]: 3% | bioavailability [29]: 11% | remaining at 24 h, 0.1 mg/ml [31]: 97% | bioavailability [32]: 6% | half-life [33]: 144 min | Tmax [34]: 120 min | fraction unbound at 1 µM [36]: 0.06
SMILES: CN1CC(C)(C(O)(c2ccc(OC(F)(F)F)cc2)c2cncc(N3CCCC3)c2)C1 (racemic)
Activity [10]: Non-Toxic | inhibition [18]: Active | IC50 at 72 h [30]: 11 µM | inhibition [35]: Active
